Measured values: patent publication US8168651B2, “Protein kinase modulators” (Cylene Pharmaceuticals, Inc., priority 2008, dated 2012)

How the values were obtained:
Experiment in all cases: Standardized radiometric kinase assays, percentage of activity at 0.5 μM;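 further: Read-out is ³³P-labelled substrate protein phosphorylated by each kinase, captured on filters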
[1] = molecular target: each individual kinase of the panel (Homo sapiens, UniProt Q8TDX7)
[2] = molecular target: each individual kinase of the panel (Homo sapiens, UniProt O15146)
Chain of each individual kinase of the panel (Homo sapiens, UniProt O15146) (O15146 24-869 limits assumed): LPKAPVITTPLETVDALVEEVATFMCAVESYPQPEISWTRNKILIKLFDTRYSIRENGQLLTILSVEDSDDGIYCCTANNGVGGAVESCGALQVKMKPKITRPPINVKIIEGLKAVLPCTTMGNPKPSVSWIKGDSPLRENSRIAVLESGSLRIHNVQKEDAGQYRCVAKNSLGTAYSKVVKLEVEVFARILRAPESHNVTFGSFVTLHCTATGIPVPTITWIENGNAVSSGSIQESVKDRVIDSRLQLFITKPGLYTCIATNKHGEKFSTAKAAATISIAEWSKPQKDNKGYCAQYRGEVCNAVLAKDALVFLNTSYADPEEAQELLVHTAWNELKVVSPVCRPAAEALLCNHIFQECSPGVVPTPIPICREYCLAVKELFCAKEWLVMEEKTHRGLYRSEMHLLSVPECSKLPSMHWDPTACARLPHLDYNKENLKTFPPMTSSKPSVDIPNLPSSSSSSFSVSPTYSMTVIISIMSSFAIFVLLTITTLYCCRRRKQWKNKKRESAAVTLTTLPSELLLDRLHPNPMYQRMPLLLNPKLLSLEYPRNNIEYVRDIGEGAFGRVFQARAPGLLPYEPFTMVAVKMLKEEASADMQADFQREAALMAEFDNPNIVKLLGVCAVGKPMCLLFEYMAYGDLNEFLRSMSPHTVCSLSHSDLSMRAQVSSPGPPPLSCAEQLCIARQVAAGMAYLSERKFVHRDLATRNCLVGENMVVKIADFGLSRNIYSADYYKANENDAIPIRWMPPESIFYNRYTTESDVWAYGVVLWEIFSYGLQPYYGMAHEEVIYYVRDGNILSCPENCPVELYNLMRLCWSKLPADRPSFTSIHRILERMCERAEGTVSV

[3] = molecular target: each individual kinase of the panel (Homo sapiens, UniProt Q9BXA7)
[4] = molecular target: each individual kinase of the panel (Homo sapiens, UniProt Q8IWQ3)
[5] = molecular target: each individual kinase of the panel (Homo sapiens, UniProt Q05513)
[6] = molecular target: each individual kinase of the panel (Homo sapiens, UniProt P05771)
Chain of each individual kinase of the panel (Homo sapiens, UniProt P05771) (P05771 2-671 limits assumed): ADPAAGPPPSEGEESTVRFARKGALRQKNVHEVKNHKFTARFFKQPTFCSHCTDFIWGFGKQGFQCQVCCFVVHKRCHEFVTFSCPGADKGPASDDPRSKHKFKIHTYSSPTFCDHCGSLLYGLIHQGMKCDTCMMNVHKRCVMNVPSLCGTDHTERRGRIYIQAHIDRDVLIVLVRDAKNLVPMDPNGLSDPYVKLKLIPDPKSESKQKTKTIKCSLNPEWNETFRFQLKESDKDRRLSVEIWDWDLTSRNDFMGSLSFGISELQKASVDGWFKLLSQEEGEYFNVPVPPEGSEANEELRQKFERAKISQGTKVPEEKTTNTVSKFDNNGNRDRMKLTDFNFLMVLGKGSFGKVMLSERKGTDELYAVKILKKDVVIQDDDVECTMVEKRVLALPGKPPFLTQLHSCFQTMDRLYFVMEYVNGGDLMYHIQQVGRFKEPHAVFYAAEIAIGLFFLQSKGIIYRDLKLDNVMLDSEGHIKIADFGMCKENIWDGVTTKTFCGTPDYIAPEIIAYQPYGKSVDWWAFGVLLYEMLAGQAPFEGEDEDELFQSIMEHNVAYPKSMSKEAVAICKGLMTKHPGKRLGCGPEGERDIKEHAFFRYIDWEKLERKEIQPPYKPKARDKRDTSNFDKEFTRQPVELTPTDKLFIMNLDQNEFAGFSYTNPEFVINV

[7] = molecular target: each individual kinase of the panel (Homo sapiens, UniProt Q96PF2)
[8] = molecular target: each individual kinase of the panel (Homo sapiens, UniProt P45984)
[9] = molecular target: each individual kinase of the panel (Homo sapiens, UniProt Q9HC98)
[10] = molecular target: each individual kinase of the panel (Homo sapiens, UniProt Q9UBE8)
[11] = molecular target: each individual kinase of the panel (Homo sapiens, UniProt Q8N568)
[12] = molecular target: each individual kinase of the panel (Homo sapiens, UniProt Q9UHD2)
[13] = molecular target: each individual kinase of the panel (Homo sapiens, UniProt P49840)
Chain of each individual kinase of the panel (Homo sapiens, UniProt P49840) (P49840 2-483 limits assumed): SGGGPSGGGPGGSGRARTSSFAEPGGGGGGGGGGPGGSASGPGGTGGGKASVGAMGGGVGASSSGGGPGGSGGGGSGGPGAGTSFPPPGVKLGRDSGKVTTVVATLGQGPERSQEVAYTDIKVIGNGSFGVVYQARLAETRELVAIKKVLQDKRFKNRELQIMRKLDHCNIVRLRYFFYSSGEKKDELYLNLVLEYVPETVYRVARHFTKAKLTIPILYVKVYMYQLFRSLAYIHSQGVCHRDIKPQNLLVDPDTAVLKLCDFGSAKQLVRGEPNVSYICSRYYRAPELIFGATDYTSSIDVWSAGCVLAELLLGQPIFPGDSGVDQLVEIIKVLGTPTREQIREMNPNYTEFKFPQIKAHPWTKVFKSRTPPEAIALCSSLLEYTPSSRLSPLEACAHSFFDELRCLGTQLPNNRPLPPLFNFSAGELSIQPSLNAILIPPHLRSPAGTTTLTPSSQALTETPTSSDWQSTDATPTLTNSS

[14] = molecular target: each individual kinase of the panel (Homo sapiens, UniProt P45983)
[15] = molecular target: each individual kinase of the panel (Homo sapiens, UniProt P36896)
Chain of each individual kinase of the panel (Homo sapiens, UniProt P36896) (P36896 24-505 limits assumed): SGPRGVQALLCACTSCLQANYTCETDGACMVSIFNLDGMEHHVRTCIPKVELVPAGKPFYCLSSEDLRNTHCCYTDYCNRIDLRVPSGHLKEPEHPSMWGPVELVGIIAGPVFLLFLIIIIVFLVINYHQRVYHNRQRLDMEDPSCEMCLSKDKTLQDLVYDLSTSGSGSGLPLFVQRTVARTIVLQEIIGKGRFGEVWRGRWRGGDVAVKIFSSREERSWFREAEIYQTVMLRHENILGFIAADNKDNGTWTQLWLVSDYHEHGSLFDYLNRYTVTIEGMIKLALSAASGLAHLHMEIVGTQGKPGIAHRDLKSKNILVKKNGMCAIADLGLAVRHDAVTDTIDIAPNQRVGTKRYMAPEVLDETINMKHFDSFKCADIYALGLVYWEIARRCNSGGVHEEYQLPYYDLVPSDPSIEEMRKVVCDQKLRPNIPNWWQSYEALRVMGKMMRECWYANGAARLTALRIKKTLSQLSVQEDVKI

[16] = molecular target: each individual kinase of the panel (Homo sapiens, UniProt Q9NQU5)
[17] = molecular target: each individual kinase of the panel (Homo sapiens, UniProt O75582)
[18] = molecular target: each individual kinase of the panel (Homo sapiens, UniProt Q9Y5S2)
[19] = molecular target: each individual kinase of the panel (Homo sapiens, UniProt P05129)
[20] = molecular target: each individual kinase of the panel (Homo sapiens, UniProt Q14289)
[21] = molecular target: each individual kinase of the panel (Homo sapiens, UniProt P52564)
[22] = molecular target: each individual kinase of the panel (Homo sapiens, UniProt Q8TDC3)
[23] = molecular target: each individual kinase of the panel (Homo sapiens, UniProt Q05655)
[24] = molecular target: each individual kinase of the panel (Homo sapiens, UniProt P22455)
Chain of each individual kinase of the panel (Homo sapiens, UniProt P22455) (P22455 22-802 limits assumed): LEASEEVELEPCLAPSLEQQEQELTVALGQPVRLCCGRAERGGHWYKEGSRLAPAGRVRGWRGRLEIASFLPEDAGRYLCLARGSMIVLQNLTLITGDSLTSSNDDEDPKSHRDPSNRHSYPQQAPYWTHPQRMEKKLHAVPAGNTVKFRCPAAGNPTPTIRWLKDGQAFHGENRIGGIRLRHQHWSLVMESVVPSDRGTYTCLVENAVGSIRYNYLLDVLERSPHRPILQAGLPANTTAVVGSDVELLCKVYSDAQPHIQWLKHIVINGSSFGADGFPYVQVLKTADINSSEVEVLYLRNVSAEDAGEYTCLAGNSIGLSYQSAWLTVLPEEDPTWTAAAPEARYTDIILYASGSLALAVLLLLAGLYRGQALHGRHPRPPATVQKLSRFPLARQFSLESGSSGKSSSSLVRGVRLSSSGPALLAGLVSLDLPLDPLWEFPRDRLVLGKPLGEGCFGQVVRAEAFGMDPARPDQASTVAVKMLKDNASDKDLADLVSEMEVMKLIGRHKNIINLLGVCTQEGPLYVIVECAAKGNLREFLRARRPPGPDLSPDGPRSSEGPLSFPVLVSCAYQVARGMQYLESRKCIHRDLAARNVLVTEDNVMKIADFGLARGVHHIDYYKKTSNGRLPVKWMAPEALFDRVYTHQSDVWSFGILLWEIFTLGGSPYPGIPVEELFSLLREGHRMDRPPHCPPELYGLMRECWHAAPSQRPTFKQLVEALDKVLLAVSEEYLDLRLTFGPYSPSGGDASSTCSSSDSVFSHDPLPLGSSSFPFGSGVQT

[25] = molecular target: each individual kinase of the panel (Homo sapiens, UniProt Q9H2G2)
[26] = molecular target: each individual kinase of the panel (Homo sapiens, UniProt Q86UE8)
[27] = molecular target: each individual kinase of the panel (Homo sapiens, UniProt Q13237)
Chain of each individual kinase of the panel (Homo sapiens, UniProt Q13237) (Q13237 2-762 limits assumed): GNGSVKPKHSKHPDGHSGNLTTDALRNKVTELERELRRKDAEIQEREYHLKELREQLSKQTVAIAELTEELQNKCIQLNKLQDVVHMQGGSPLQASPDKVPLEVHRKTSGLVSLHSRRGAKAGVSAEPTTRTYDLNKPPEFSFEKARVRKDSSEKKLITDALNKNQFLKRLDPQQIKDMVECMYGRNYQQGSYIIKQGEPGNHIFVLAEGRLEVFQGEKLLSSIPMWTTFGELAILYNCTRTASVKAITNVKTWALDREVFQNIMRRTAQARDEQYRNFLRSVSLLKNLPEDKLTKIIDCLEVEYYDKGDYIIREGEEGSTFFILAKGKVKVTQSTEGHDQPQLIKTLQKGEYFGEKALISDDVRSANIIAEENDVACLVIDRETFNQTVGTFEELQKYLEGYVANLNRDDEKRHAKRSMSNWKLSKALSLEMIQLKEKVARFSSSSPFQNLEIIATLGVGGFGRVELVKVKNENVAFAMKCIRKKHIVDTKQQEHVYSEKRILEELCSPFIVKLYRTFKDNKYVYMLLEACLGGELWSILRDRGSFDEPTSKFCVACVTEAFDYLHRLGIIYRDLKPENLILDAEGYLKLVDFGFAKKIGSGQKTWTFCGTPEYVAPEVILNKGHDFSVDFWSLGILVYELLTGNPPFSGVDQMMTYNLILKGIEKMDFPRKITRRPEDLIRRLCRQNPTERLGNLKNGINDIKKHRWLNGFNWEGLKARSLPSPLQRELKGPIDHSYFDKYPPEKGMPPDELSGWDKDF

[28] = molecular target: each individual kinase of the panel (Homo sapiens, UniProt O14920)
[29] = molecular target: each individual kinase of the panel (Homo sapiens, UniProt P54753)
[30] = molecular target: each individual kinase of the panel (Homo sapiens, UniProt O96017, R145W)
[31] = molecular target: each individual kinase of the panel (Homo sapiens, UniProt P29317)
Chain of each individual kinase of the panel (Homo sapiens, UniProt P29317) (P29317 24-976 limits assumed): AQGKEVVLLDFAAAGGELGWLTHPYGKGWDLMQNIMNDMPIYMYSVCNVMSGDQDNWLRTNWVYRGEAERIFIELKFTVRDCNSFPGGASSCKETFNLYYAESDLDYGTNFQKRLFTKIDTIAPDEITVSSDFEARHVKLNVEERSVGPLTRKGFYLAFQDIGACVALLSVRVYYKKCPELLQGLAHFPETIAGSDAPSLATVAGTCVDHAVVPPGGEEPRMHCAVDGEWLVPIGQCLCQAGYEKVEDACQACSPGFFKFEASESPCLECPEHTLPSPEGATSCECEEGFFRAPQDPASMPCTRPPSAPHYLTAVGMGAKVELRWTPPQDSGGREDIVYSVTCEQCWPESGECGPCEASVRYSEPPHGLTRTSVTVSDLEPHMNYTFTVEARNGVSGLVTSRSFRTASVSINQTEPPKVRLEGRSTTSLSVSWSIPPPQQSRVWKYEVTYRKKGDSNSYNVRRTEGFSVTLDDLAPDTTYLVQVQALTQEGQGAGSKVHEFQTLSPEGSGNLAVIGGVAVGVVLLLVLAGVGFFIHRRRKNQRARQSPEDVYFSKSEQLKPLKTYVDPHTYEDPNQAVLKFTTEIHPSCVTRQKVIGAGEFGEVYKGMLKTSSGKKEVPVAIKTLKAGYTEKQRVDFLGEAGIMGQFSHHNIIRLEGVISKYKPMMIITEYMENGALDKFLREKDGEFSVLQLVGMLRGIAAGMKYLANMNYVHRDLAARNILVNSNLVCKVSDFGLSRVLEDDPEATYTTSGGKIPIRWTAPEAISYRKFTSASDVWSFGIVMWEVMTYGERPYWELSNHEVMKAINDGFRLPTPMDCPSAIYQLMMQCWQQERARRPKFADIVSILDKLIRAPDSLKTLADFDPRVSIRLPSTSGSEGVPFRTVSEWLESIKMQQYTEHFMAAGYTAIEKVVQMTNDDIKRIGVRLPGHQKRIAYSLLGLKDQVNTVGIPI

SMILES: C#Cc1cccc(Nc2nc3cc(C(=O)O)ccc3c3cncnc23)c1 [drawing 1135]
- NEK7 percentage of activity [1]: −14%
- MUSK percentage of activity [2]: −6%
- TSSK1 percentage of activity [3]: −18%
- BRSK2 percentage of activity [4]: 7%
- PRKCZ percentage of activity [5]: −9%
- PRKCB1 percentage of activity [6]: 0%
- TSSK2 percentage of activity [7]: −9%
- JNK2A2 percentage of activity [8]: −7%
- NEK6 percentage of activity [9]: −3%
- NLK percentage of activity [10]: 3%
- DCAMKL2 percentage of activity [11]: −3%
- TBK1 percentage of activity [12]: 70%
- GSK3A percentage of activity [13]: 51%
- JNK1A1 percentage of activity [14]: −9%
- ALK4 percentage of activity [15]: −15%
- PAK6 percentage of activity [16]: −14%
- MSK1 percentage of activity [17]: 19%
- MRCKB percentage of activity [18]: 0%
- PRKCG percentage of activity [19]: 0%
- Pyk2 percentage of activity [20]: −3%
- MEK6 percentage of activity [21]: 6%
- BRSK1 percentage of activity [22]: −1%
- PRKCD percentage of activity [23]: 7%
- FGFR4 percentage of activity [24]: 14%
- SLK percentage of activity [25]: −15%
- TLK2 percentage of activity [26]: 8%
- PRKG2 percentage of activity [27]: 2%
- IKK beta percentage of activity [28]: 5%
- EPHB3 percentage of activity [29]: −36%
- CHK2(R145W) (h) percentage of activity [30]: 0%
- EPHA2 percentage of activity [31]: 2%
